Data published in PubChem BioAssay (NCI).
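Test compounds were applied to cells in 96-well plates for 48 hours at 5 doses. GI50 marks 50% less growth. TGI marks complete inhibition of growth.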

Assays:
Experiment in all cases: inhibition of tumour cell growth, NCI panel, 48 h
[1] = test system: ACHN renal
[2] = test system: CAKI-1 renal
[3] = test system: DMS 273 small cell lung
[4] = test system: M19-MEL melanoma
[5] = test system: MALME-3M melanoma
[6] = test system: NCI-H226 lung
[7] = test system: OVCAR-8 ovarian
[8] = test system: SK-MEL-5 melanoma
[9] = test system: TK-10 renal
[10] = test system: UACC-257 melanoma

| SMILES | TGI [1] | TGI [2] | TGI [3] | TGI [4] | TGI [5] | TGI [6] | TGI [7] | TGI [8] | TGI [9] | TGI [10] | GI50 [1] | GI50 [2] | GI50 [5] | GI50 [6] | GI50 [7] | GI50 [8] | GI50 [9] | GI50 [10] |
| --- | --- | --- | --- | --- | --- | --- | --- | --- | --- | --- | --- | --- | --- | --- | --- | --- | --- | --- |
| COc1ccc(-c2cc(=O)c3c(O)c(O)c(OC)cc3o2)cc1O | > 100 µM | > 100 µM | > 100 µM | > 100 µM | > 100 µM | > 100 µM | > 100 µM | > 100 µM | > 100 µM | > 100 µM |  |  |  |  |  |  |  |  |
| COc1ccc2c(=O)c(-c3cc(OC)c(OC)cc3OC)coc2c1 | > 100 µM | > 100 µM | > 100 µM | > 100 µM | > 100 µM | > 100 µM | > 100 µM | > 100 µM | > 100 µM | > 100 µM |  |  |  |  |  |  |  |  |
| CCOC(=O)c1ccc(N=Cc2ccc(N(CCC#N)S(=O)(=O)c3ccccc3)cc2C)cc1 |  | > 100 µM | > 100 µM | > 100 µM | > 100 µM |  | > 100 µM | > 100 µM | > 100 µM | > 100 µM |  |  |  |  |  |  |  |  |
| C=CCCC(O)c1cc(C)c(O)c(C)c1 (centres undefined) | > 100 µM |  |  | > 100 µM | > 100 µM | > 100 µM | > 100 µM | > 100 µM | > 100 µM | > 100 µM |  |  |  |  |  |  |  |  |
| CN(C)S(=O)(=O)c1cccc(C(=O)Nc2nc(-c3ccc(F)c(F)c3)cs2)c1 | > 100 µM | > 75.9 µM |  |  | 99.4 µM | 98.3 µM | > 100 µM | > 25.2 µM | > 100 µM | > 100 µM | 10.5 µM | 10.9 µM | 18.6 µM | 9.32 µM | 8.28 µM | 3.81 µM | 18.1 µM | 6.24 µM |
| CN[C@@H](C)C(=O)N[C@H](C(=O)N1CCC[C@H]1c1nc(C(=O)c2ccc(F)cc2)cs1)C1CCCCC1 | > 100 µM | > 100 µM |  |  | 20 µM | > 100 µM | 29.3 µM | 28.7 µM | 45.6 µM | 31.2 µM | 26.6 µM | 34.9 µM | 4.08 µM | 31.2 µM | 11.1 µM | 13.6 µM | 22.3 µM | 15.1 µM |
| O=C(NCCCN1CCN(CCCNC(=O)c2cccc3ccccc23)CC1)c1cccc2ccccc12 | > 100 µM | > 100 µM |  | > 100 µM | > 100 µM | > 100 µM | > 100 µM | > 100 µM | > 100 µM | > 100 µM |  |  |  |  |  |  |  |  |
| CCN(Cc1cc(Cl)cc(C)c1O)Cc1c(O)ccc2ccccc12 | 31.5 µM | 28.8 µM |  |  | 29.8 µM | 41 µM | 37.7 µM | 29.4 µM | 31 µM | 30.4 µM |  |  |  |  |  |  |  |  |
| CC(C)(C)c1cc(C2c3cc4c(cc3OC(O)(CO)C2C(=O)O)OCO4)cc(C(C)(C)C)c1O (centres undefined) (tested in a mixture with another compound) | 28.2 µM | 50.3 µM | 41 µM | 28.6 µM | 37.3 µM |  | 33.9 µM | 23.9 µM | 45.4 µM | 26.4 µM |  |  |  |  |  |  |  |  |
| CC(=O)/C=C1\CC(=O)N(C)c2ccccc2N1 |  | > 100 µM | > 100 µM | > 100 µM | > 100 µM | > 100 µM | > 100 µM | 2.05 µM | > 100 µM |  |  |  |  |  |  |  |  |  |
| CCCC(=O)Oc1ccc(/C(=C(\C)c2ccc(Cl)cc2)c2ccc(OCCN(CC)CC)cc2)cc1 | 11.9 µM | 16.3 µM |  |  | 3.55 µM | 25 µM | 11.9 µM | 3.21 µM | 20.7 µM | 4.18 µM | 3.39 µM | 3.99 µM | 1.74 µM | 8.8 µM | 3.43 µM | 1.75 µM | 5.29 µM | 2.02 µM |
| O=NNc1ccc(-c2ccccc2)cn1 | 15 µM | 43.8 µM |  |  | 49.8 µM | > 64.6 µM | > 100 µM | 31.7 µM | 69 µM | > 90.6 µM |  |  |  |  |  |  |  |  |
| O=c1[nH]c2nc3ccccc3c(=O)n2nc1Cc1ccccc1 | > 100 µM | > 100 µM | > 100 µM |  | > 100 µM | > 100 µM | > 100 µM | > 100 µM |  | > 100 µM |  |  |  |  |  |  |  |  |
| O=C1OC(c2ccc([N+](=O)[O-])cc2)=N/C1=C\c1ccc(Cl)cc1 | > 100 µM | > 100 µM |  |  | > 100 µM | > 100 µM | > 100 µM | > 100 µM | > 100 µM | > 100 µM |  |  |  |  |  |  |  |  |
| O=C(O)/C=C/c1c2ccc(=O)c(O)c-2oc2c(O)c(O)ccc12 | > 100 µM | > 100 µM |  |  | > 100 µM | > 100 µM | > 100 µM | > 100 µM | > 100 µM | > 100 µM |  |  |  |  |  |  |  |  |
| Nc1c(C(=O)c2cccc(-c3cccnc3)c2)cnn1-c1ccc(F)cc1 | > 25 µM | > 25 µM |  |  | > 25 µM | > 25 µM | > 25 µM | > 25 µM | > 25 µM | > 25 µM | > 25 µM | > 25 µM | > 25 µM | > 16.1 µM | > 13.9 µM | > 25 µM | > 25 µM | > 25 µM |
| Cc1cc(NC(=O)NCCOc2ccc(N3C(N)=NC(N)=NC3(C)C)cc2Cl)ccc1S(=O)(=O)F | > 100 µM | > 100 µM |  |  | 41.1 µM | > 100 µM | > 100 µM | 11.4 µM | > 100 µM | > 49.1 µM | 25 µM | 55.4 µM | 7.46 µM | 8.57 µM | 4.91 µM | 1.19 µM | 6.23 µM | 4.1 µM |
| COc1ccc(-n2nc(C)c3c(Nc4ccc(NC(=O)Nc5cccc(C(F)(F)F)c5)cc4)ncnc32)cc1 | 3.43 µM | 2.96 µM |  |  | 3.31 µM | 4.2 µM | 4.39 µM | 3.21 µM | 6.6 µM | 4.18 µM | 1.6 µM | 1.46 µM | 1.59 µM | 1.84 µM | 1.93 µM | 1.75 µM | 2.39 µM | 1.88 µM |
| CCN1C(=O)N(CC)C2C1NN=c1s/c(=C3\C(=O)Nc4ccccc43)c(=O)n12 (centres undefined) | > 47.6 µM | 34.8 µM |  |  | 38.4 µM | 55.5 µM | > 53.7 µM | > 100 µM | 32.6 µM | > 100 µM | 0.606 µM | 0.404 µM | 0.557 µM | 0.544 µM | 0.639 µM | 0.426 µM | 9.37 µM | 25.2 µM |
